Row | SMILES | melting point [°C]
1 | CCOc1ccc(B(O)O)cn1 [6-ethoxypyridine-3-boronic acid] | 103
2 | O=C1CCc2ccc(F)cc21 [6-fluoro-1-indanone] | 58
3 | O=C(O)c1c(O)cccc1F [6-fluorosalicylic acid] | 160
4 | C=CCCCCC(=O)O [6-heptenoic acid] | -6
5 | COc1ccc2c(c1)=NC(c1ccccc1)C=2c1ccccc1 (centres undefined) [6-methoxy-2,3-diphenyl-1H-indole] | 212
6 | COc1ccc(B(O)O)cn1 [6-methoxypyridine-3-boronic acid] | 133
7 | COc1ccc2ncccc2c1 [6-methoxyquinoline] | 19
8 | Cc1ccc2ncccc2c1[N+](=O)[O-] [6-methyl-5-nitroquinoline] | 117
9 | O=Cc1cc2c(cc1[N+](=O)[O-])OCO2 [6-nitropiperonal] | 95
10 | COc1cc(C=O)c([N+](=O)[O-])cc1OC [6-nitroveratraldehyde] | 133
11 | Cc1cc(=O)oc2cc(O)ccc12 [7-Hydroxy-4-methyl-2H-chromen-2-one] | 191
12 | CC(C)C1=C(O)C(=O)C2=C(C(=O)CC3C(C)(C)CCCC23C)C1=O (centres undefined) [7-Oxoroyleanone] | 198
13 | Brc1cccc2cc[nH]c12 [7-bromoindole] | 43
14 | O=C1Nc2c(Br)cccc2C1=O [7-bromoisatin] | 197
15 | CCN(CC)c1ccc2c(C)cc(=O)oc2c1 [7-diethylamino-4-methylcoumarin] | 74
16 | O=c1cc(C(F)(F)F)c2ccc(O)cc2o1 [7-hydroxy-4-(trifluoromethyl)coumarin] | 179
17 | O=C1CC(c2ccccc2)Oc2cc(O)ccc21 (centres undefined) [7-hydroxyflavanone] | 188
18 | CC(C)C1=C(O)C(=O)C2=C(CCC3C(C)(C)CCCC23C)C1=O (stereo not drawn) [7alpha-12-Hydroxy-8,12-abietadiene-11,14-dione] | 181
19 | O=C1c2ccccc2-c2cccc3cccc1c23 [7h-benz[de]anthracen-7-one] | 173
20 | Nc1cccc2ccc(O)cc12 [8-amino-2-naphthol] | 208
21 | O=C(O)CCCCCCCBr [8-bromooctanoic acid] | 39
22 | C/C(=N\Nc1cccc2cccnc12)c1cccs1 [8-{(2E)-2-[1-(2-Thienyl)ethylidene]hydrazino}quinoline] | 160
23 | O=C1C(=O)c2ccccc2-c2ccccc21 [9,10-phenanthrenequinone] | 210
24 | ClCc1c2ccccc2cc2ccccc12 [9-(chloromethyl)anthracene] | 140
25 | Clc1c2ccccc2cc2ccccc12 [9-Chloroanthracene] | 104
26 | CCn1c2ccccc2c2ccccc21 [9-Ethyl-9H-carbazole] | 69
27 | Cn1c2ccccc2c2ccccc21 [9-Methyl-9H-carbazole] | 91

Row | SMILES | melting point [°C]
28 | Cc1c2ccccc2cc2ccccc12 [9-Methylanthracene] | 78
29 | OCc1c2ccccc2cc2ccccc12 [9-anthracenemethanol] | 163
30 | Clc1c2ccccc2cc2ccccc12 [9-chloroanthracene] | 104
31 | CCn1c2ccccc2c2ccccc21 [9-ethylcarbazole] | 69
32 | CC1(C)CCC2=C1CCC1C2CCC2CC(=O)CCC21C (centres undefined) [10,17,17-trimethylgon-13-en-3-one] | 135
33 | Oc1cccc2ccc3cccnc3c12 [10-hydroxybenzo[h]quinoline] | 104
34 | FC1(F)C2=CC=CC=C1C=CC=C2 [11,11-Difluoro-1,6-methano[10]annulene] | 119
35 | CCCCc1c2c(cc3c1-c1ccccc1OC3)CCCC2=O [12-Butyl-9,10-dihydro-6H-naphtho[2,3-c]chromen-11(8H)-one] | 91
36 | CCCCCCC(O)CCCCCCCCCCC(=O)O (centres undefined) [12-Hydroxyoctadecanoic acid] | 80.5
37 | C[C@]12CCC(=O)C=C1CC[C@@H]1[C@@H]2CC[C@]2(C)C(=O)CC[C@@]12O [14-hydroxyandrost-4-ene-3,17-dione] | 258
38 | C=C1C(=O)C23C(OC(C)=O)CC4C(C)(C)CCC(OC(C)=O)C4(C)C2C(OC(C)=O)CC1C3OC(C)=O (centres undefined) [15-oxokaur-16-ene-1,7,11,14-tetrayl tetraacetate] | 237
39 | CC(=O)OC1CCC2(C)C3CCC4=C(CCC4(C)C#CCl)C3CCC2(C)C1 (centres undefined) [17-(chloroethynyl)-5,10,17-trimethylgon-13-en-3-yl acetate] | 110
40 | CC(=O)OC1CCC2(C)C(CCC3C2CCC2(C)C3CCC2(O)C#Cc2ccccc2)C1 (centres undefined) [17-hydroxy-21-phenylpregn-20-yn-3-yl acetate] | 166
41 | CC12CCC(=O)CC1CCC1C2CCC2(C)C1CCC2(O)CCc1ccccc1 (centres undefined) [17-hydroxy-21-phenylpregnan-3-one] | 177
42 | CCC1(O)CCC2C3CCC4CC(OC(C)=O)CCC4(C)C3CCC21C (centres undefined) [17-hydroxypregnan-3-yl acetate] | 165
43 | C#CC1(O)CCC2C3CCc4cc(O)ccc4C3CCC21C (centres undefined) [17a-Ethynylestradiol] | 141
44 | O=C(/C=C/OC(=O)c1ccccc1)CCc1ccccc1 [(1E)-3-oxo-5-phenylpent-1-en-1-yl benzoate] | 100
45 | CC1(C)[C@H]2CC[C@](C)(C2)[C@H]1O [(1R)-endo-fenchyl alcohol] | 41
46 | O=C(O)[C@@H]1[C@H](C(=O)O)[C@H]2C=C[C@@H]1C2 [(1R,2R,3S,4S)-Bicyclo[2.2.1]hept-5-ene-2,3-dicarboxylic acid] | 150
47 | CN[C@@H](C)[C@H](O)c1ccccc1 [(1R,2S)-2-(Methylamino)-1-phenylpropan-1-ol] | 36
48 | O[C@@H]1CCC[C@@H]1O [(1R,2S)-Cyclopentane-1,2-diol] | 32.5
49 | OC1[C@H]2CC[C@@H]1[C@H]1C=C[C@@H]2O1 (stereo partly drawn) [(1R,2S,5R,6S)-9-oxatricyclo[4.2.1.1~2,5~]dec-7-en-10-ol] | 122
50 | CC1(C)C2CC[C@]1(C)C(=O)C2 [(1S)-1,7,7-Trimethylbicyclo[2.2.1]heptan-2-one] | 179
51 | CC1(C)[C@@H]2CC[C@]13CS(=O)(=O)N[C@@H]3C2 [(1S,2R)-10,2-camphorsultam] | 183
52 | Nc1ccc(C/C(=N/O)c2ccc(N)cc2)cc1 [(1Z)-1,2-bis(4-aminophenyl)ethanone oxime] | 147
53 | CC1(C)O[C@]2(C)CC[C@H]1CC2 [(1s,4s)-1,3,3-Trimethyl-2-oxabicyclo[2.2.2]octane] | 2
54 | O=C(OCCc1cc([N+](=O)[O-])c(CCOC(=O)c2ccccc2)cc1[N+](=O)[O-])c1ccccc1 [(2,5-dinitrobenzene-1,4-diyl)diethane-2,1-diyl dibenzoate] | 158

Row | SMILES | melting point [°C]
55 | OC/C(Br)=C(\Br)CO [(2E)-2,3-Dibromobut-2-ene-1,4-diol] | 113
56 | O=C(OC(=O)/C(=C/c1ccccc1)Cc1ccccc1)/C(=C/c1ccccc1)Cc1ccccc1 [(2E)-2-benzyl-3-phenylprop-2-enoic anhydride] | 108
57 | O=C(O)/C=C/c1ccccc1 [(2E)-3-Phenylacrylic acid] | 133
58 | O=C(/C=C/c1ccc(-c2ccc(Cl)cc2)o1)c1ccccc1 [(2E)-3-[5-(4-Chlorophenyl)-2-furyl]-1-phenylprop-2-en-1-one] | 127
59 | Cc1ccc(-c2ccc(/C=C/C(=O)c3ccccc3)o2)cc1 [(2E)-3-[5-(4-Methylphenyl)-2-furyl]-1-phenylprop-2-en-1-one] | 101
60 | O=C(/C=C/c1ccc(-c2ccc([N+](=O)[O-])cc2)o1)c1ccccc1 [(2E)-3-[5-(4-Nitrophenyl)-2-furyl]-1-phenylprop-2-en-1-one] | 158
61 | N#C/C=C/C#N [(2E)-But-2-enedinitrile] | 97
62 | CC12CCC(C=C/C1=N\O)C2(C)C (centres undefined) [(2E)-N-hydroxy-1,8,8-trimethylbicyclo[3.2.1]oct-3-en-2-imine] | 146
63 | C[C@@H](O)[C@@H](C)O [(2R,3R)-Butane-2,3-diol] | 16
64 | NC(=O)/C=C\C(=O)O [(2Z)-4-Amino-4-oxobut-2-enoic acid] | 160
65 | O=C1CSc2ccccc2N1 [(2h)1,4-benzothiazin-3(4h)-one] | 177
66 | COc1ccc(SCC(=O)O)cc1OC [(3,4-dimethoxyphenylthio)acetic acid] | 102
67 | CC(C)[C@@H](C)/C=C/[C@@H](C)[C@H]1CC[C@H]2C3=CC=C4C[C@@H](O)CC[C@]4(C)[C@H]3CC[C@]12C [(3beta,22E)-Ergosta-5,7,22-trien-3-ol] | 160
68 | OCc1ccc(Cl)cc1 [(4-Chlorophenyl)methanol] | 71
69 | Cc1cc(CO)nn1-c1ccccn1 [(5-methyl-1-pyridin-2-yl-1H-pyrazol-3-yl)methanol] | 45
70 | COC1=C(OC)/C(=C\CN=[N+]=[N-])OC1=O [(5E)-5-(2-azidoethylidene)-3,4-dimethoxyfuran-2(5H)-one] | 56
71 | C[C@]12CCC(=O)C=C1CC[C@@H]1[C@@H]2[C@@H](O)C[C@@]2(C)[C@H]1CC[C@]2(O)C(=O)CO [(11beta)-11,17,21-Trihydroxypregn-4-ene-3,20-dione] | 220
72 | CC(C(=O)O)c1cccc(C(=O)c2ccccc2)c1 (stereo not drawn) [(+/+)-ketoprofen] | 93.9
73 | Cl/C=C/Cl [(E)-1,2-Dichloroethene] | -50
74 | [O-]/[N+](=N\c1ccccc1)c1ccc(/N=N/c2ccccc2)cc1 [(E)-1-phenyl-2-{4-[(Z)-phenyl-NNO-azoxy]phenyl}diazene] | 131
75 | O=C(O)/C(=C/c1ccccc1[N+](=O)[O-])c1ccccc1 [(E)-2-phenyl-3-(2-nitrophenyl)propenoic acid] | 198
76 | c1ccc(/N=N/c2ccccc2)cc1 [(E)-Diphenyldiazene] | 68.5
77 | CC(C)(C)OC(=O)N1CCS[C@@H]1C(=O)O [(R)-3-boc-thiazolidine-2-carboxylic acid] | 92
78 | CC(C)(C)OC(=O)N1CCS[C@H]1C(=O)O [(S)-3-boc-thiazolidine-2-carboxylic acid] | 92
79 | CN1CCC[C@H]1c1cccnc1 [(S)-nicotine] | -79
